Test results: US10493046B2, “5-hydroxytryptamine 1B receptor-stimulating agent for use as a promoter of satellite cells self-renewal and/or differentiation” (INSTITUT PASTEUR, priority 2015, dated 2019)

Legend:
[1] = system: vessels; assay: Vessel number in tibialis anterior of treated mice (Flk1GFP/+ or CD31 immunostaining); format: in vivo, mouse
Procedure: (§1) Immunostaining was performed on cryosections fixed with 4% paraformaldehyde (PFA EMS#15710) in cold PBS, permeabilized with 0.5% Triton X-100 20 min at room temperature, washed, and blocked with 10% BSA for 30 min. Sections were incubated with primary antibodies overnight at 4° C. (see Table 1 below) and with Alexa-conjugated secondary antibodies 1/250 and Hoechst for 45 minutes. Sections were then analysed using an automated axioscan (Zeiss) or inverted Observer.Z1 Apotome (Zeiss). For apoptosis assessment, cells were collected in 2% serum, spun on polyD-lysine (Sigma-Aldrich#P6407), and immediately fixed with PFA 4%.
Throughout the study, focus was made on the tibialis anterior (TA). In skeletal muscle, SC are central for muscle repair. […] SC are localized close to capillaries and angiogenesis is known to be crucial for muscle repair SC survival with cellular interplays between vessel cells and SC. The number of vessels was therefore quantified. In control Flk1^GFP/+ mouse (placebo), the number of vessels was of 870±213.1 vessels per mm^2 and increased after 3 weeks of I.P treatment (1103±110.2 vessels per mm^2), and even more after 6 weeks (1384±175.3 vessels per mm^2, p=0.008) (FIG. 2e). Neovessels presented with normal histological appearance associating a basal lamina and a permeable lumen sometimes containing red blood cells. […] 841±137 CD31+ cells per mm^2 were counted in the placebo-treated mice vs. 2260±361 CD31+ cells per mm^2 in the fluoxetine-treated mice, p=0.008 (FIG. 2t-v), confirming the previous observation.
In order to investigate the effect of vortioxetine on vessels number, intra peritoneal (I.P) administration of 20 mg/kg of vortioxetine was performed for either 12 days, 3 or 6 weeks to C57Bl/6 mice (FIG. 10a). The number of CD31+ cells was counted by immunostaining. The number of vessels in the placebo is (863.5±115.6 vessels per mm^2) and increases after 12 days of I.P treatment (2274±926 vessels per mm^2, p=0.03), and even more after 3 weeks (2847±705 vessels per mm^2, p=0.02) (FIG. 10b). However, there was no statistically significant differences between 12 days and 3 weeks of treatment (p=0.49). Neovessels display a normal histological appearance associated with a basal lamina and a permeable lumen sometimes containing red blood cells. The daily administration of vortioxetine IP might cause unwanted peritoneal inflammation that could interfere with angiogenesis since inflammation and neovascularization are intertwined in some models. Vortioxetine was therefore administered per os (P.O) for 12 days: a similar increase in the number of vessels was observed (2451±595 vessels per mm^2 p=0.028, FIG. 10c). To further confirm those results, vortioxetine will be administered to Flk1^GFP/+ mice P.O and I.P for 12 days, and an ex vivo Matrigel angiogenesis assay and plasma from vortioxetine treated mice will be used on HUVEC (endothelial cells).

[2] = system: satellite cells; assay: Satellite cells in vitro in plasma of treated mice (live videomicroscopy, immunostaining); format: cell-based, mouse; conditions: for Reserve cells (quiescent Pax7 positive cells) 14 days post-plating: plasma from fluoxetine-treated animals
Procedure: Muscle dissection was done as previously described in cold DMEM. Muscles were then chopped with small scissors and put in a 50 ml Falcon tube with collagenase 0.1% and trypsin 0.25% at 37° C. with gentle agitation. After 20 minutes, the supernatant was collected in 20% serum placed on ice, and the collagenase/trypsin solution was added to continue the digestion. Once muscle was completely digested, the solution was filtrated using 40 μm cell strainers. Satellite cells were cultured in 1:1 DMEM-Glutamax (Gibco#41965-039):MCDB201 (Sigma#M6770) containing 20% serum FBS (Biowest S1860). Medium was filtered using 0.22 μm filters. Cells were plated on Matrigel coating (BD Biosciences#354234) and kept in an incubator (37° C., 5% CO2). […] The thus-obtained supernatant replaced FBS in the culture medium; the rest of the medium was unchanged.
Cells isolated by FACS were plated overnight on a 24-well glass bottom plate (P24G-0-10-F; MatTek) coated with matrigel (BD Biosciences#354234) and placed in an incubator in pre-equilibrated medium (1:1 DMEM Glutamax: MCDB [Sigma-Aldrich], 20% FCS (Biowest S1860). The plate was then incubated at 37° C., 5% CO2 (Zeiss, Pecon). A Zeiss Observer.Z1 connected with a LCI PInN 10×/0.8 W phaseII objective and AxioCam camera piloted with AxioVision was used. Cells were filmed for up to 5 days, and images were taken every 30 min with brightfield and phase filters and MozaiX 3×3 (Zeiss). Raw data were transformed and presented as a video.
Those results were confirmed in vitro (FIG. 7a). […] This difference was lost when SC were plated with GR127935 (p=0.4) (FIG. 7e). The faster exit of quiescence and higher division rates were also lost when adding GR127935 in vitro (FIGS. 7f,g). The effects of the plasma from fluoxetine-treated animals were persistent when adding MDL100907 (FIGS. 7b-g).

[3] = system: Mdx mice; assay: Mdx mice (Duchenne muscular dystrophy model), muscle histology; format: in vivo, mouse
Procedure: Tibialis anterior (TA) was carefully dissected and snap frozen in liquid-nitrogen-cooled isopentane for a few minutes and stored at −80° C. prior to cryosectioning (10 μm sections). Sections were kept at room temperature overnight before staining. Sections were then rehydrated in PBS for 10 minutes and fixed in 10% formalin for 3 minutes. The sections were then routinely stained with haematoxylin and eosin (HE) using an automated stain machine or manually with red sirius.
as §1
The fiber size was also overall bigger in Mdx treated-animals (4.241±0.9 pixels in treated vs. 3.192±0.3 in placebo p=0.051) (FIG. 8b). […] The number of vessels increased in the treated mice (1459±327 vessels per mm^2) when compared to the placebo (942.4±113 vessels […], p=0.008) (FIG. 8e). […] This observation is in line with the decreased infiltration of inflammatory cells observed in the muscle (9.6±3.7 Gr1+ cells observed per section in the placebo vs. 4±2.4 Gr1+ cells in the treated mice p=0.04) (FIG. 8i).

[4] = system: satellite cells; assay: Satellite cell (SC) number in tibialis anterior of treated mice (histological count or FACS cytometry); format: in vivo, mouse; conditions: for Number of SC: Tg:Pax7nGFP mice
[5] = 20% plasma from fluoxetine treated C57Bl/6 mice, live-videomicroscopy
[6] = fluoxetine P.O. 6 weeks, Mdx mice

COc1ccc(NC(=O)c2ccc(-c3ccc(-c4noc(C)n4)cc3C)cc2)cc1N1CCN(C)CC1 [GR127935]
Number of vessels ([1]; GR127935 in osmotic pump together with fluoxetine P.O 6 weeks, Flk1GFP/+ mice): 1028±173 vessels per mm^2 | Pax7 positive cells 4 days post-plating ([2]; plasma from fluoxetine treated animals incubated with GR127935): 35.25% | Reserve cells (quiescent Pax7 positive cells) 14 days post-plating ([2]; GR127935 added in vitro): 4.5% | MyoG expression difference when plated with GR127935 ([2]; plasma from fluoxetine-treated mice plus GR127935): lost | Faster exit of quiescence and higher division rates when adding GR127935 ([2]; plasma from fluoxetine-treated mice plus GR127935 in vitro): lost | Beneficial effects of fluoxetine when co-treated with 5-HT1B inhibitor ([3]; Mdx mice treated with fluoxetine and a 5-HT1B inhibitor): the beneficial effects were lost | Number of SC ([4]; GR127935 in osmotic pump together with fluoxetine P.O 6 weeks): 4674±1414 SC per TA

CNCCC(Oc1ccc(C(F)(F)F)cc1)c1ccccc1 (stereo not drawn) [fluoxetine]
Number of vessels ([1]; fluoxetine 18 mg/kg I.P, 3 weeks, Flk1GFP/+ mouse): 1103±110.2 vessels per mm^2 | Number of vessels ([1]; fluoxetine 18 mg/kg I.P, 6 weeks, Flk1GFP/+ mouse): 1384±175.3 vessels per mm^2 | Number of vessels ([1]; fluoxetine P.O 6 weeks and PBS in osmotic pump, Flk1GFP/+ mice): 1949±576 vessels per mm^2 | CD31+ cells on cryo-sectioned TA ([1]; fluoxetine P.O, 6 weeks, C57Bl/6 mice): 2260±361 CD31+ cells per mm^2 | Number of vessels ([1]; fluoxetine P.O, 6 weeks, Flk1GFP/+ mouse): 1256±62.2 vessels per mm^2 | Myogenine positive cells 4 days post-plating ([2]; 20% plasma from fluoxetine treated C57Bl/6 mice): 34.75±6.3 % of total plated cells | Division rate [2, 5]: 8.7 ± 0.7 h | First satellite cells division, time post-plating [2, 5]: 26.45 h | Pax7 positive cells 4 days post-plating ([2]; plasma from fluoxetine treated animals): 24% | Reserve cells (quiescent Pax7 positive cells) 14 days post-plating [2]: 9.4% | Myogenin (MyoG) expression increase ([2]; plasma from fluoxetine-treated mice vs placebo): 3 times increase | MyoD (activation marker) expression between conditions ([2]; plasma from fluoxetine-treated mice vs placebo vs GR127935): did differ at any time investigated | Fiber size [3, 6]: 4.241±0.9 pixels | Foci of necrotic fiber (necrotic area) [3, 6]: 2890 ± 803 µm² | Gr1+ cells in the muscle [3, 6]: 4±2.4 cells per section | Number of cycling satellite cells vs placebo [3, 6]: decreased | Number of regenerating foci vs placebo [3, 6]: decreased | Number of vessels [3, 6]: 1459±327 vessels per mm^2 | Number of SC by histological count ([4]; fluoxetine 18 mg/kg, tibialis anterior, TgPax7nGFP mouse): 16.3±5.4 SC per mm^2 | Number of SC ([4]; fluoxetine P.O 6 weeks and PBS in osmotic pump): 7283±2325 SC per TA
